Source: publication PMC3404088, “Development of a Small D-Enantiomeric Alzheimer’s Amyloid-β Binding Peptide Ligand for Future In Vivo Imaging Applications” (PLoS ONE, 2012)
“Also recorded” adds a separate entry of the source. Square brackets hold non-standard residues; d marks the D form. Peptide text beside a SMILES is read from it. * marks the point of attachment. 5FAM = O=C1OC2(c3ccc(O)cc3Oc3cc(O)ccc32)c2ccc(C(=O)*)cc21

Legend:
[1] = Analysis of ACI-80 stability: N-terminal glutamine vs pyroglutamate content by HPLC/ESI-MS; format: physicochemical; details: aqueous solution
Description: In solution, N-terminal glutamine peptides such as D1 are prone to convert into N-terminal pyroglutamate species: Gln-SHYRHISPAQV → Pyr-SHYRHISPAQV. Therefore, the stability of solid ACI-80, solid ACI-80-Kϕ (ϕ: fluorescein isothiocyanate, covalently linked to the peptide via a lysine (K)) and [^127I]-ACI-80 in solution was investigated by JPT Peptide Technologies GmbH, Berlin, Germany using HPLC/ESI-MS whereby the relative content of N-terminal Gln peptide and N-terminal Pyr peptide was assessed.
An important observation during initial compound stability characterization experiments was the partial conversion of the N-terminal glutamine of [^127I]-ACI-80 into pyro-glutamate. It is known that peptides with an N-terminal glutamine are prone to conversion of this residue into a pyroglutamate. Therefore, the composition of freshly synthesized and untreated ACI-80 and ACI-80-Kϕ as well as [^127I]-ACI-80 after iodination were investigated. […] It was observed that freshly synthesized ACI-80 and ACI-80-Kϕ contained only minor fractions of pyroglutamic acid while about one third of [^127I]-ACI-80 in solution already converted into N-terminal pyroglutamate species.

[2] = biological target: T1, Aβ plaques in brain sections of transgenic APP (V717I) x PS1 (A246E) mice (Homo sapiens, UniProt P05067); experiment: Ex vivo staining of mouse brain slices by FITC labeled compounds; details: for staining / recognition of Aβ plaques: 0.01 mg/ml ϕ-labeled compound, 2 h, 10 µm cryostat sections; for staining / recognition of Aβ plaques / background signal / staining pattern: fluorescence microscopy; for background signal: 0.01 mg/ml; for overlay with 6E10 anti-Aβ staining: co-staining with 6E10 (2 µg/ml) and DAPI, triple overlay
T1 construct: triple image overlay of respective stains reveal that the ϕ-compounds identify plaques; from tissue; host or cells: brain cryosections of APP (V717I) x PS1 (A246E) transgenic mice
Description: In vitro tissue section staining was performed according to previously described protocols with slight modifications. Mouse brains were obtained from male transgenic (tg) APP (London mutation V717l) x PS1 (A246E) mice aged 13–21 months and from female wild type (wt) mice aged 9–10 months. The mice were anesthetized and transcardially perfused with saline. The brains were removed and snap frozen. 10 µm thick sagittal cryostat sections through the whole mouse brain were produced and mounted onto glass slides. ϕ-labeled compounds were applied to investigate binding. Thus, the slides were thawed, washed in PBS and fixed in 4% paraformaldehyde (20 min at RT) just before incubation with ϕ-labeled compounds. One series of sections was treated only with fluorescent compounds (0.01 mg/ml, incubation time 2 h) while another series of sections were incubated with anti-Aβ antibody 6E10 at 1∶500 dilution (SIG-39320, Covance; final antibody concentration was 2 µg/ml) in addition to ϕ-labeled compounds (0.01 mg/ml). The slices were washed in PBS. The sections incubated with ϕ-labeled compound and 6E10 antibody were further incubated for 2 h at RT with Goat-anti-Mouse IgG1– AlexaFluor 555 (A21127, Invitrogen, 1∶1000 dilution) and washed with PBS. Finally, all sections were counterstained with 4’–6-Diamidino-2-phenylindole (DAPI, 32670, Sigma, incubation 5 min at RT) for the visualization of cell nuclei. The slides were mounted using Prolong Gold Antifade mounting medium (P36930, Invitrogen) and coverslipped.
The tissues were analyzed using a fluorescent Zeiss Axioscope 2 Plus microscope using the AxioVision 4 image analysis software.
A further series of slices was stained using a primary anti-fluorescein isothiocyanate antibody combined with alkaline phosphatase reaction for visualization of ϕ-labeled peptides. Briefly, the sections were treated with blocking solution (10% normal goat serum (NGS), 0.25% Triton X-100 in PBS for 1 h at RT) and incubated with primary antibody (rabbit-anti-FITC; Invitrogen) at a dilution of 1∶500. The sections were then washed and incubated for 2 h at RT with the secondary antibody goat-anti-rabbit-alkaline phosphatase (Sigma) at a dilution of 1∶100. After washing, the slides were incubated with BCIP/NBT substrate (Sigma) for 3 min, washed, dehydrated and mounted using Eukitt mounting medium.

SMILES	stability in aqueous solution [1]	staining / recognition of Aβ plaques [2]	background signal [2]	overlay with 6E10 anti-Aβ staining [2]	staining pattern [2]	plaque detection via anti-fluorescein isothiocyanate antibody and alkaline phosphatase ([2]; tg mouse brain slices immersed in ϕ-peptide, BCIP/NBT chromogenic detection, light microscope)
CC[C@@H](C)[C@@H](NC(=O)[C@@H](Cc1c[nH]cn1)NC(=O)[C@@H](CCCNC(=N)N)NC(=O)[C@@H](Cc1ccc(O)cc1)NC(=O)[C@@H](Cc1c[nH]cn1)NC(=O)[C@@H](CO)NC(=O)[C@H](N)CCC(N)=O)C(=O)N[C@H](CO)C(=O)N1CCC[C@@H]1C(=O)N[C@H](C)C(=O)N[C@H](CCC(N)=O)C(=O)N[C@H](CCCCN)C(=O)N[C@H](CCCCNC(=O)c1ccc2c(c1)C(=O)OC21c2ccc(O)cc2Oc2cc(O)ccc21)C(=O)O [ACI-87-Kϕ] (H-[dQ][dS][dH][dY][dR][dH][dI][dS][dP][dA][dQ][dK][dK](5FAM)-OH; N-terminus and C-terminus assumed)	stable in aqueous solution	readily recognized amyloid plaques	high background fluorescence	nearly no overlay with 6E10 anti-Aβ was detected	–	–
CC[C@@H](C)[C@@H](NC(=O)[C@@H](Cc1c[nH]cn1)NC(=O)[C@@H](CCCNC(=N)N)NC(=O)[C@@H](Cc1ccc(O)cc1)NC(=O)[C@@H](Cc1c[nH]cn1)NC(=O)[C@H](N)CO)C(=O)N[C@H](CO)C(=O)N1CCC[C@@H]1C(=O)N[C@H](C)C(=O)N[C@H](CCC(N)=O)C(=O)N[C@H](CCCCN)C(=O)N[C@H](CCCCNC(=O)c1ccc2c(c1)C(=O)OC21c2ccc(O)cc2Oc2cc(O)ccc21)C(=O)O [ACI-88-Kϕ] (H-[dS][dH][dY][dR][dH][dI][dS][dP][dA][dQ][dK][dK](5FAM)-OH; N-terminus and C-terminus assumed)	stable in aqueous solution	stained plaques most intensively; also recorded: readily recognized amyloid plaques	lowest background signal of all peptides	match 6E10 anti-Aβ staining quite well; also recorded: good overlap with 6E10 Aβ staining	stained the core of plaques	–
CC[C@@H](C)[C@@H](NC(=O)[C@@H](Cc1c[nH]cn1)NC(=O)[C@@H](CCCNC(=N)N)NC(=O)[C@@H](Cc1ccc(O)cc1)NC(=O)[C@@H](Cc1c[nH]cn1)NC(=O)[C@@H](CO)NC(=O)[C@H]1CCCN1)C(=O)N[C@H](CO)C(=O)N1CCC[C@@H]1C(=O)N[C@H](C)C(=O)N[C@H](CCC(N)=O)C(=O)N[C@H](CCCCN)C(=O)N[C@H](CCCCNC(=O)c1ccc2c(c1)C(=O)OC21c2ccc(O)cc2Oc2cc(O)ccc21)C(=O)O [ACI-89-Kϕ] (H-[dP][dS][dH][dY][dR][dH][dI][dS][dP][dA][dQ][dK][dK](5FAM)-OH; N-terminus and C-terminus assumed)	stable in aqueous solution	stained plaques most intensively; also recorded: readily recognized amyloid plaques	–	match 6E10 anti-Aβ staining quite well	more similar to the one of 6E10 which also stains diffuse Aβ plaques	abundant chromogenic deposits
